Results published in EPA's ToxRefDB 2.

Columns and labels:
[1] = tested on: mouse; settings: Sub-acute repeat dose toxicity, Oral, Gavage/Intubation, dose end: 14 day, group: systemic
[2] = tested on: dog; settings: Sub-acute repeat dose toxicity, beagle, Oral, Gavage/Intubation, dose end: 14 day, group: systemic
[3] = tested on: mouse; settings: Sub-acute repeat dose toxicity, Oral, Gavage/Intubation, dose end: 28 day
[4] = tested on: dog; settings: Chronic toxicity, beagle, Oral, Gavage/Intubation, dose end: 182 day, group: systemic, systemic / in life observation / clinical signs / defecation (diarrhea) + systemic / in life observation / clinical signs / feces
[5] = tested on: mouse; settings: Sub-acute repeat dose toxicity, Oral, Gavage/Intubation, dose end: 28 day; remark: listed apart in the source
[6] = tested on: mouse; settings: Chronic toxicity, Oral, Gavage/Intubation, dose end: 182 day
[7] = tested on: dog; settings: Sub-acute repeat dose toxicity, beagle, Oral, Gavage/Intubation, dose end: 28 day, group: systemic
[8] = tested on: dog; settings: Chronic toxicity, beagle, Oral, Gavage/Intubation, dose end: 182 day, group: systemic
[9] = tested on: dog; settings: Chronic toxicity, beagle, Oral, Feed, dose end: 52 week, group: systemic, systemic / in life observation / clinical signs / feces
[10] = tested on: rat; settings: Combined chronic toxicity/carcinogenicity, fischer, Oral, Feed, dose end: 2 year, group: systemic
[11] = tested on: rat; settings: Subchronic oral toxicity in rodents, wistar, Feed, dose end: 13 week, group: systemic
[12] = tested on: mouse; settings: Combined chronic toxicity/carcinogenicity, b6c3f1, Oral, Gavage/Intubation, dose end: 103 week, group: systemic
[13] = tested on: rat; settings: Subchronic oral toxicity in rodents, Fischer, Gavage/Intubation, dose end: 13 week, group: systemic, systemic / hematology / erythrocyte (rbc) count differential / erythrocyte (rbc) + systemic / hematology / hematocrit (hct) / hematocrit (…
[14] = tested on: rat; settings: Combined chronic toxicity/carcinogenicity; fischer; Oral; Gavage/Intubation; dose end: 103 week; group: systemic; systemic / hematology / erythrocyte (rbc) count differential / erythrocyte (rbc) + systemic / hematology / hematocrit (hct) / hematocrit (…
[15] = tested on: mouse; settings: Subchronic oral toxicity in rodents, b6c3f1, Gavage/Intubation, dose end: 13 week, group: systemic
[16] = tested on: hamster; settings: Subchronic oral toxicity in rodents, golden syrian, Feed, dose end: 13 week, group: systemic
[17] = tested on: mouse; settings: Subchronic oral toxicity in rodents, b6c3f1, Feed, dose end: 13 week, group: systemic
[18] = tested on: rat; settings: Subchronic oral toxicity in rodents, sprague dawley, Feed, dose end: 13 week, group: systemic
[19] = tested on: mouse; settings: Combined chronic toxicity/carcinogenicity; other; Oral; Feed; dose end: 365 day; group: systemic; systemic / in life observation / body weight / body weight
[20] = tested on: rat; settings: Combined chronic toxicity/carcinogenicity; fischer; Oral; Feed; dose end: 365 day; group: systemic; systemic / pathology microscopic / liver / hepatocellular carcinoma + systemic / pathology microscopic / testes / adenoma + systemic / in …
[21] = tested on: rat; settings: Combined chronic toxicity/carcinogenicity, fischer, Oral, Feed, dose end: 24 month
[22] = tested on: mouse; settings: Carcinogenicity, b6c3f1, Oral, Feed, dose end: 18 month
[23] = tested on: rat; settings: Combined chronic toxicity/carcinogenicity, fischer, Oral, Feed, dose end: 24 month; remark: listed apart in the source
[24] = tested on: rat; settings: Developmental neurotoxicity ChE Inhibition study; sprague dawley; Oral; Gavage/Intubation; dose end: 21 PND; group: cannot be grouped; cholinesterase / cholinesterase / cholinesterase / erythrocyte cholinesterase (che)
[25] = systemic / clinical chemistry / albumin / albumin + systemic / clinical chemistry / protein / protein + systemic / hematology / erythrocyte…
[26] = systemic / in life observation / body weight / body weight
[27] = systemic / in life observation / body weight / body weight + systemic / in life observation / clinical signs / defecation (diarrhea) + …
[28] = systemic / pathology gross / oral mucosa / discolored
[29] = group: maternal, reproductive / reproductive performance / estrous cycle / absent corpora lutea
[30] = group: systemic, systemic / clinical chemistry / alkaline phosphatase (alp/alk) / alkaline phosphatase (alp/alk) + systemic / hematology / mean corpuscular (…
[31] = group: systemic, systemic / hematology / mean corpuscular (cell) volume (mcv) / mean corpuscular (cell) volume (mcv) + systemic / hematology / mean …
[32] = group: reproductive, reproductive / reproductive performance / estrous cycle / absent corpora lutea
[33] = group: systemic, systemic / hematology / erythrocyte (rbc) count differential / erythrocyte (rbc) + systemic / in life observation / body weight / body …
[34] = systemic / clinical chemistry / cholesterol / cholesterol + systemic / clinical chemistry / triglycerides / triglycerides + systemic / …
[35] = systemic / in life observation / clinical signs / defecation (diarrhea) + systemic / in life observation / clinical signs / delayed sexual …
[36] = systemic / in life observation / clinical signs / abnormal feces
[37] = systemic / in life observation / clinical signs / abnormal feces + systemic / in life observation / body weight / body weight + systemic / …
[38] = discoloration + systemic / hematology / blood clotting / blood clotting - activated…
[39] = systemic / clinical chemistry / urea nitrogen / urea nitrogen
[40] = systemic / hematology / platelet / platelet + systemic / in life observation / body weight / body weight + systemic / in life observation / …
[41] = systemic / clinical chemistry / sodium / sodium
[42] = systemic / hematology / blood clotting / blood clotting - prothrombin time + systemic / hematology / blood clotting / blood clotting - …
[43] = systemic / pathology microscopic / blood / lymphoma malignant + systemic / pathology microscopic / kidney / hemosiderosis + systemic / …
[44] = systemic / pathology microscopic / blood / lymphoma malignant + systemic / pathology microscopic / liver / hematopoietic cell proliferation…
[45] = systemic / hematology / erythrocyte (rbc) count differential / erythrocyte (rbc) + systemic / hematology / hematocrit (hct) / hematocrit (…
[46] = systemic / hematology / hematocrit (hct) / hematocrit (hct) + systemic / pathology microscopic / spleen / hematopoietic cell proliferation…
[47] = systemic / in life observation / body weight / body weight + systemic / in life observation / body weight / body weight gain + systemic / …
[48] = systemic / pathology microscopic / liver / cytoplasmic alteration + systemic / clinical chemistry / cholesterol / cholesterol + systemic / …
[49] = systemic / clinical chemistry / alkaline phosphatase (alp/alk) / alkaline phosphatase (alp/alk) + systemic / organ weight / kidney / …
[50] = group: cholinesterase, cholinesterase / cholinesterase / cholinesterase / plasma cholinesterase (che)
[51] = group: cholinesterase, cholinesterase / cholinesterase / cholinesterase / plasma cholinesterase (che) + cholinesterase / cholinesterase / cholinesterase / brain …
[52] = group: systemic, systemic / pathology microscopic / parathyroid gland / hyperplasia
[53] = group: systemic, systemic / pathology microscopic / parathyroid gland / hyperplasia + systemic / hematology / erythrocyte (rbc) count differential / …
[54] = group: cholinesterase, cholinesterase / cholinesterase / cholinesterase / erythrocyte cholinesterase (che) + cholinesterase / cholinesterase / cholinesterase / …
[55] = group: systemic, systemic / in life observation / body weight / body weight + systemic / in life observation / food consumption / food consumption + systemic…
[56] = group: cholinesterase, cholinesterase / cholinesterase / cholinesterase / erythrocyte cholinesterase (che)
[57] = group: systemic, systemic / in life observation / food consumption / food consumption + systemic / pathology microscopic / parathyroid gland / hyperplasia

CNC(=O)c1ccccc1Sc1ccc2c(/C=C/c3ccccn3)n[nH]c2c1 [Axitinib]
LOAEL [1, 25]: > 250 mg/kg/day
NOAEL [1, 25]: ≥ 250 mg/kg/day
LEL [1, 26]: 25 mg/kg/day
NEL [1, 26]: < 25 mg/kg/day
LOAEL [2, 27]: > 150 mg/kg/day
NOAEL [2, 27]: ≥ 150 mg/kg/day
LEL [2, 28]: 12 mg/kg/day
NEL [2, 28]: < 12 mg/kg/day
LEL [3, 29]: 125 mg/kg/day
LOAEL [3, 29]: > 125 mg/kg/day
NEL [3, 29]: 15 mg/kg/day
NOAEL [3, 29]: ≥ 125 mg/kg/day
LOAEL [3, 30]: > 125 mg/kg/day
NEL [3, 30]: 5 mg/kg/day
NOAEL [3, 30]: ≥ 125 mg/kg/day
LEL [3, 31]: 15 mg/kg/day
LEL [4]: 1 mg/kg/day
LOAEL [4]: > 5 mg/kg/day
NEL [4]: < 1 mg/kg/day
NOAEL [4]: ≥ 5 mg/kg/day
LEL [5, 29]: 125 mg/kg/day
LOAEL [5, 29]: > 125 mg/kg/day
NEL [5, 29]: 15 mg/kg/day
NOAEL [5, 29]: ≥ 125 mg/kg/day
LOAEL [5, 30]: > 125 mg/kg/day
NEL [5, 30]: 5 mg/kg/day
NOAEL [5, 30]: ≥ 125 mg/kg/day
LEL [5, 31]: 15 mg/kg/day
LEL [6, 32]: 5 mg/kg/day
LOAEL [6, 32]: > 125 mg/kg/day
NEL [6, 32]: < 5 mg/kg/day
NOAEL [6, 32]: ≥ 125 mg/kg/day
LOAEL [6, 33]: > 125 mg/kg/day
NEL [6, 33]: 5 mg/kg/day
NOAEL [6, 33]: ≥ 125 mg/kg/day
LEL ([6]; group: systemic, systemic / hematology / erythrocyte (rbc) count differential / erythrocyte (rbc) + systemic / in life observation / clinical signs / poor …): 15 mg/kg/day
LOAEL [7, 34]: > 50 mg/kg/day
NOAEL [7, 34]: ≥ 50 mg/kg/day
LEL [7, 35]: 5 mg/kg/day
NEL [7, 35]: < 5 mg/kg/day
LEL [8, 36]: 1 mg/kg/day
NEL [8, 36]: < 1 mg/kg/day
LOAEL [8, 37]: > 5 mg/kg/day
NOAEL [8, 37]: ≥ 5 mg/kg/day

CC(C)N1C(=O)c2ccccc2NS1(=O)=O [Bentazon]
LOAEL ([9]; discoloration): 13.1 mg/kg/day
NEL [9, 38]: 3.2 mg/kg/day
NOAEL [9, 38]: 3.2 mg/kg/day
LEL ([9]; discoloration + systemic / in life observation / clinical signs / [other]): 13.1 mg/kg/day
LEL [10, 39]: 9 mg/kg/day
NEL [10, 39]: < 9 mg/kg/day
LOAEL [10, 40]: 180 mg/kg/day
NOAEL [10, 40]: 35 mg/kg/day
LEL [11, 41]: 25.3 mg/kg/day
NEL [11, 41]: < 25.3 mg/kg/day
LOAEL [11, 42]: 243 mg/kg/day
NOAEL [11, 42]: 77.8 mg/kg/day

Cl.Nc1ccc(Cl)cc1 [4-Chloroaniline hydrochloride]
LOAEL [12, 43]: > 30 mg/kg/day
NOAEL [12, 43]: ≥ 30 mg/kg/day
LEL [12, 44]: 3 mg/kg/day
NEL [12, 44]: < 3 mg/kg/day
LEL [13]: 5 mg/kg/day
LOAEL [13]: > 80 mg/kg/day
NEL [13]: < 5 mg/kg/day
NOAEL [13]: ≥ 80 mg/kg/day
LEL [14]: 2 mg/kg/day
LOAEL [14]: 6 mg/kg/day
NEL [14]: < 2 mg/kg/day
NOAEL [14]: 2 mg/kg/day
LOAEL [15, 45]: 15 mg/kg/day
NOAEL [15, 45]: 7.5 mg/kg/day
LEL [15, 46]: 7.5 mg/kg/day
NEL [15, 46]: < 7.5 mg/kg/day

Cc1cccc(Nc2cc(Cl)nc(SCC(=O)O)n2)c1C [Pirinixic acid]
LOAEL [16, 47]: 0.7 mg/kg/day
NOAEL [16, 47]: 0.4 mg/kg/day
LEL [16, 48]: 0.4 mg/kg/day
NEL [16, 48]: < 0.4 mg/kg/day
LOAEL [17, 47]: 22 mg/kg/day
NOAEL [17, 47]: 12 mg/kg/day
LEL [17, 48]: 0.9 mg/kg/day
NEL [17, 48]: < 0.9 mg/kg/day
LEL [18, 49]: 0.3 mg/kg/day
NEL [18, 49]: < 0.3 mg/kg/day
NOAEL [18, 49]: 0.6 mg/kg/day
LOAEL ([18]; systemic / pathology microscopic / liver / cytoplasmic alteration + systemic / in life observation / body weight / body weight + systemic / …): 3 mg/kg/day

NC(=O)CCCCC(N)=O [Adipamide]
LEL [19]: 3600 mg/kg/day
LOAEL [19]: > 3600 mg/kg/day
NEL [19]: < 3600 mg/kg/day
NOAEL [19]: ≥ 3600 mg/kg/day
LEL [20]: 1200 mg/kg/day
LOAEL [20]: > 1200 mg/kg/day
NEL [20]: < 1200 mg/kg/day
NOAEL [20]: ≥ 1200 mg/kg/day

CCOC(=O)CC(SP(=S)(OC)OC)C(=O)OCC (stereo not given) [Malathion]
LOAEL [21, 50]: 29 mg/kg/day
NEL [21, 51]: 4 mg/kg/day
NOAEL [21, 51]: 4 mg/kg/day
LEL ([21]; group: cholinesterase, cholinesterase / cholinesterase / cholinesterase / plasma cholinesterase (che) + cholinesterase / cholinesterase / cholinesterase / …): 29 mg/kg/day
LEL [21, 52]: 4 mg/kg/day
NEL [21, 52]: < 4 mg/kg/day
LOAEL [21, 53]: > 739 mg/kg/day
NOAEL [21, 53]: ≥ 739 mg/kg/day
LEL [22, 54]: 143 mg/kg/day
LOAEL [22, 54]: 143 mg/kg/day
NEL [22, 54]: 17.4 mg/kg/day
NOAEL [22, 54]: 17.4 mg/kg/day
LEL [22, 55]: 1480 mg/kg/day
LOAEL [22, 55]: 1480 mg/kg/day
NEL [22, 55]: 143 mg/kg/day
NOAEL [22, 55]: 143 mg/kg/day
LEL [23, 56]: 5 mg/kg/day
NEL [23, 56]: < 5 mg/kg/day
LOAEL [23, 50]: 29 mg/kg/day
NOAEL [23, 51]: 4 mg/kg/day
LOAEL [23, 31]: 359 mg/kg/day
NOAEL [23, 31]: 29 mg/kg/day
LEL [23, 57]: 4 mg/kg/day
NEL [23, 57]: < 4 mg/kg/day
LEL [24]: 5 mg/kg/day
LOAEL [24]: 5 mg/kg/day
NEL [24]: < 5 mg/kg/day
NOAEL [24]: < 5 mg/kg/day
